Patent US7527952B2 (Vertex Pharmaceuticals Incorporated, priority 1996, dated 2009)

Legend:
[1] = compared with MPA; cited from earlier work
[2] = tested on: human type II IMPDH mutants of Ser 275, Ser 327 and Gln 368; experiment: MPA inhibition of IMPDH mutants of other active site residues; type: biochemical; settings: mutations of Ser 275, Ser 327 and Gln 368
Method: Residues which make direct contact with MPA also were modified.
Cultures (500 ml) were grown at 37° C. for 14 to 16 hours after IPTG induction, and typically yielded 2 grams of cell paste. Cells were resuspended in 50 mM Tris, pH 8.0, 150 mM KCl, 3 mM EDTA, 2 mM DTT buffer containing 10% urea, and then lysed by addition of lysozyme (1 mg/g cell paste) and sonication. IMPDH wild-type and mutant proteins were precipitated from crude lysates by 25% w/v ammonium sulfate. Up to 150 mgs of at least 65%-70% pure IMPDH was obtained by this single purification step. The partially purified IMPDH was resuspended in 50 mM Tris, pH 8.0, 100 mM KCl, 3 mM EDTA, 2 mM DTT, 10% glycerol buffer and used for kinetic analysis. Second order rate constants (k cat/Km, M^−1sec^−1) were calculated from IMP titration data at saturating (400 mM). NAD concentration obtained by monitoring the rate of NADH production at 340 nm at 37° C. […] Ki app. values for MPA were obtained from the rate vs. inhibitor data of IMPDH mutants at saturating IMP and NAD concentrations.

murine blastoma cells = settings: cells selected for resistance, carrying the Thr 333 to Ile mutation; cited from earlier work

## COc1c(CC=C(C)CCC(=O)O)cc2c(c1C)COC2=O [des-hydroxy-MPA]
[1]
  fold less potent than MPA in a cellular assay: at least 1,000 fold

## mycophenolic acid [MPA]
[2]
  effect of mutation on drug inhibition: little effect
Murine blastoma cells
  increased resistance to MPA: 10,000 fold
